Measurements reported in patent US9409908B2 (priority 2012, dated 2016).
Structures can show the parent of a compound that is named as a salt. Where two headings read alike, the source gives them in different places.

Tests used:
[1] = rcm bond, Grubbs II, 40.0 °C
[2] = from C=CC[C@H](NC(=O)OC(C)(C)C)c1cc(-c2ccncc2NC(=O)[C@H](C)C=C)ccn1; rcm bond; 12-membered ring; Grubbs II/pTsOH; CH2Cl2; 5.2 mM; 40.0 °C
[3] = molecular target: purified human Factor XIa (Homo sapiens (Human), UniProt P03951); experiment: biochemical; assay type: biochemical; conditions: read-out: Factor XIa Ki
Chain of purified human Factor XIa (P03951 whole entry, looked up): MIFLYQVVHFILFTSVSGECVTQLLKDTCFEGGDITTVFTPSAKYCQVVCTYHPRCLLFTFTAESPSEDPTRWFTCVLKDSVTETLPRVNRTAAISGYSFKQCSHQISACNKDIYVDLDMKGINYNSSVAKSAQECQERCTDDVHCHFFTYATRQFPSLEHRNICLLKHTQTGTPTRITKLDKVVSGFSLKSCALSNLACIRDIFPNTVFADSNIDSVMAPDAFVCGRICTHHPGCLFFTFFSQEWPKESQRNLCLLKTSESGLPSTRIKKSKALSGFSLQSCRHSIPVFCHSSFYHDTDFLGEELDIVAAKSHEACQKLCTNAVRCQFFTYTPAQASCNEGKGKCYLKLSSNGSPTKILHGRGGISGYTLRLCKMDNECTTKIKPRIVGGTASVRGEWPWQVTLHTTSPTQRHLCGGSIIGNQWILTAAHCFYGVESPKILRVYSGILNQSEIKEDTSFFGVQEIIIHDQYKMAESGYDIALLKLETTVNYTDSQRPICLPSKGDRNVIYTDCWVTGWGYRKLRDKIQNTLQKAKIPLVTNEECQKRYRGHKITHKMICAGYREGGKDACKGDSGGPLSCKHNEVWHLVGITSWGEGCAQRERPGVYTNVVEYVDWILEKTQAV
Chain of purified human Factor XIa (P03951 whole entry partner, looked up): as the sequence (P03951 whole entry, looked up) above

[4] = molecular target: purified human plasma kallikrein (Homo sapiens (Human), UniProt P03952); experiment: biochemical; assay type: biochemical; conditions: read-out: Plasma Kallikrein Ki
Chain of purified human plasma kallikrein (P03952 whole entry, looked up): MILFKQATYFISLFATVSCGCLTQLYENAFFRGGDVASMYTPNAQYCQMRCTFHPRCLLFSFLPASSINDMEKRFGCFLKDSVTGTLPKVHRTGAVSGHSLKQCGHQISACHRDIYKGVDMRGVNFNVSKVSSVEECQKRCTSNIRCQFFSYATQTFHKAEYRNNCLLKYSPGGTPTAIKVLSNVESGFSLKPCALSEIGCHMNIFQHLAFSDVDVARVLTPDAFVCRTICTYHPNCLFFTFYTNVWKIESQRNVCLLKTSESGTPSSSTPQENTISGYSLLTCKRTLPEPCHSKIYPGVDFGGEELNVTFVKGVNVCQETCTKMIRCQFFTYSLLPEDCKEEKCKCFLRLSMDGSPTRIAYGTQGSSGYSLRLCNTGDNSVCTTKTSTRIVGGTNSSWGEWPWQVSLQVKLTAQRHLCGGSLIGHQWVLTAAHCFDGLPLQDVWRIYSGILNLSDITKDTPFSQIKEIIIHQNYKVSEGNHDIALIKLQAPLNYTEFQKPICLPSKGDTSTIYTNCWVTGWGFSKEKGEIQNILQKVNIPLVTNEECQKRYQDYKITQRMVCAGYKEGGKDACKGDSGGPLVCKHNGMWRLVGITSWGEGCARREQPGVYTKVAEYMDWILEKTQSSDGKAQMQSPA
Chain of purified human plasma kallikrein (P03952 whole entry partner, looked up): as the sequence (P03952 whole entry, looked up) above

Row | Compound | Ki [3] [nM] | Ki [4] [nM] | other results
1 | COC(=O)Nc1ccc2c(c1)C(=O)NC/C=C/C[C@H](NC(=O)OC(C)(C)C)c1cc-2ccn1 | – | – | ring closure, yield of all isomers ([1]; from C=CCNC(=O)c1cc(NC(=O)OC)ccc1-c1ccnc([C@H](CC=C)NC(=O)OC(C)(C)C)c1, DCM, […], 3.0 h): 39.4%
2 | COC(=O)Nc1ccc2c(c1)NC(=O)[C@H](C)/C=C/C[C@H](NC(=O)OC(C)(C)C)c1nc-2cn1COCC[Si](C)(C)C | – | – | ring closure, yield of all isomers ([1]; from C=CC[C@H](NC(=O)OC(C)(C)C)c1nc(-c2ccc(NC(=O)OC)cc2NC(=O)[C@H](C)C=C)cn1COCC[Si](C)(C)C, dichloromethane, 9.73 mM, 21.5 h): 74%
3 | C[C@@H]1/C=C/C[C@H](NC(=O)OC(C)(C)C)c2cc(ccn2)-c2ccccc2NC1=O | – | – | ring closure, yield of all isomers ([1]; from C=CC[C@H](NC(=O)OC(C)(C)C)c1cc(-c2ccccc2NC(=O)[C@H](C)C=C)ccn1, dichloromethane, 11.8 mM, 4.5 h): 78%
4 | C[C@@H]1/C=C/C[C@H](NC(=O)OC(C)(C)C)c2cc(ccn2)-c2ccncc2NC1=O | – | – | ring closure, yield after HPLC [2]: 7.3%; ring closure, yield of all isomers ([1]; from C=CC[C@H](NC(=O)OC(C)(C)C)c1cc(-c2ccncc2NC(=O)[C@H](C)C=C)ccn1, CH2Cl2, 5.06 mM, 24.0 h): 7.3%
5 | COC(=O)Nc1ccc2c(c1)NC(=O)CCCCC[C@H](N1CCC(c3c(F)ccc(Cl)c3F)=CC1=O)c1cc-2ccn1 [Example 219, Methyl N-[(15S)-15-[4-(3-chloro-2,6-difluorophenyl)-6-oxo-1,2,3,6-tetrahydropyridin-1-yl]-9-oxo-8,17-diazatricyclo[14.3.1.0^2,7]icosa-1(20),2(7),3,5,16,18-hexaen-5-yl]carbamate, TFA salt] | 6.61 | 6.85 | –
6 | Cc1[nH]c2nc1-c1ccccc1NC(=O)[C@H](C)CCC[C@@H]2N1CCC(c2c(F)ccc(Cl)c2F)=CC1=O [Example 220, (10R,14S)-14-[4-(3-chloro-2,6-difluorophenyl)-6-oxo-1,2,3,6-tetrahydropyridin-1-yl]-10,17-dimethyl-8,16,18-triazatricyclo[13.2.1.0^2,7]octadeca-1(17),2,4,6,15(18)-pentaen-9-one, TFA salt] | 21.7 | 50.2 | –
7 | C[C@@H]1CCC[C@H](N2CCC(c3c(F)ccc(Cl)c3F)=CC2=O)c2cc(ccn2)-c2cn[nH]c2NC1=O [Example 221, 13-[4-(3-chloro-2,6-difluorophenyl)-6-oxo-1,2,3,6-tetrahydropyridin-1-yl]-9-methyl-4,5,7,15-tetraazatricyclo[12.3.1.0^2,6]octadeca-1(18),2(6),3,14,16-pentaen-8-one, 2TFA salt] | > 417 | 1320 | –
